According to article PMC10706087, “The Subtype Selectivity in Search of Potent Hypotensive Agents among 5,5-Dimethylhydantoin Derived α1-Adrenoceptors Antagonists” (International Journal of Molecular Sciences, 2023):
Values joined by “and” are separate entries in the source; they are usually repeats but may differ in a detail not shown here. Equal entries are not always repeated.

Experiments:
[1] = system: arterial blood pressure of normotensive Wistar rats; assay: Influence on blood pressure in normotensive anesthetized rats after i.v. administration; type: in vivo, rat; conditions: for Diastolic blood pressure / Systolic blood pressure: mean, n = 6
Protocol: In the next step, the hypotensive activity of novel compounds 1–3, 5–9, and 11–14 was determined after i.v. administration to normotensive anesthetized rats. All results are shown in Supplementary Table S1.
The normotensive rats were anesthetized with thiopental (75 mg/kg) by intraperitoneal injection (i.p.). The left carotid artery was cannulated with a polyethylene tub filled with heparin in saline to facilitate pressure measurements using a PowerLab Apparatus (ADInstruments, Sydney, Australia). Blood pressure was measured immediately before administration of the tested compounds or vehicle—time 0 min (initial blood pressure) and 60 min thereafter. Initial blood pressure before administration of the tested chemicals in all experimental groups was similar. The tested compounds were dissolved in a specific vehicle: ethyl alcohol 5% − kolliphor 5% − water 90%. All tested chemicals were administrated intravenously (i.v.) at a constant volume of 1 mL/kg after 20 min of stabilization period. The compounds were tested at a starting dose of 2 mg/kg. If the hypotensive activity was found, the dose was reduced by half. The dosing was continued until the hypotensive effects disappeared. Urapidil was used as a reference compound.
(§1) All statistics were performed using GraphPad Prism, Version 6.0 (GraphPad Software, San Diego, CA, USA). In the radioligand binding study, data were analyzed by a one-site curve-fitting equation, and inhibition constants (Ki) values were calculated via the Cheng-Prusoff equation [63]. In functional studies, data were analyzed using a sigmoidal dose-response (variable slope) equation. Arterial blood pressure data were analyzed using a two-way ANOVA with Sidak’s post-hoc test for multiple comparisons. A p < 0.05 was considered statistically significant.

[2] = target: T1, human adrenergic receptor α1A (Homo sapiens, UniProt P35348); assay: Intrinsic activity, aequorin luminescence functional assay at α1A-AR; type: cell-based; conditions: for α1A-AR Profile: agonist/antagonist profile; for IC50: cells expressing aequorin and human α1A, against phenylephrine, means of three independent experiments in duplicates; for Selectivity Ratio α1B/α1A: selectivity for α1A-AR (IC50(α1B-AR)/IC50(α1A-AR))
T1 sequence (P35348 1-466): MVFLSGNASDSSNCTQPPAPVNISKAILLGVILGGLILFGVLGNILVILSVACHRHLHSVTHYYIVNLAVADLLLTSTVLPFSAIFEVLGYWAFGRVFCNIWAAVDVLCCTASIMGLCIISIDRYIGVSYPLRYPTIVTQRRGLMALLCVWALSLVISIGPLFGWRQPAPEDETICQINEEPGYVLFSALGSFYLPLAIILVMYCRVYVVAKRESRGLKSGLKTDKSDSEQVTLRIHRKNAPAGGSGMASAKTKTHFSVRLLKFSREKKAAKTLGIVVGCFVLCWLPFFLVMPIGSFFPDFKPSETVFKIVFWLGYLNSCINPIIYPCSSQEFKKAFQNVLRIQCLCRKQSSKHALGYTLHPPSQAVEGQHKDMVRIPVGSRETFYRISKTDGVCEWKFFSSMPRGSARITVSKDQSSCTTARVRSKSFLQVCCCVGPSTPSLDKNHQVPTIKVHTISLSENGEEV
Protocol: (§2) The subtype selectivity for α1A and α1B was calculated as IC50(α1B-AR)/IC50(α1A-AR) and IC50(α1A-AR)/IC50(α1B-AR) ratio, respectively.
(§3) Intrinsic activity at the α1-AR subtypes studies were performed using the cells expressing mitochondrially-targeted aequorin and one of the human adrenergic receptor α1A or α1B (PerkinElmer, Boston, MA, USA), according to the manufacturer’s instructions. For measurement, frozen cells were thawed and re-suspended in 10 mL of assay buffer containing 5 μM “Coelenterazine h”. This cell suspension was put in a 10 mL Falcon tube, fixed onto a rotating heel, and incubated overnight at rt in the dark (8 rpm; 45° angle). Cells were diluted with Assay Buffer to 5000 cells/20 μL. […] The light emitted was recorded for 20 s. Cells with antagonists were incubated for 15 min at room temperature. […] Luminescence was measured using the multidetection microplate reader (POLARstar Omega, BMG LABTECH, Ortenberg, Germany).
as §1

[3] = target: α1-adrenoceptors (α1-ARs), rat cerebral cortex; assay: Radioligand binding assay with [3H]-prazosin, affinity for α1-ARs; conditions: three independent experiments in duplicates, read-out: α1-adrenoceptor affinity Ki
Protocol: In the first step, all synthesized compounds (1–15) were tested in vitro for their affinity for α1-ARs on rat cerebral cortex by the radioligand binding assay using [^3H]-prazosin as a specific radioligand.
The affinity for α1-ARs was determined by radioligand binding assay on rat cerebral cortex using [3H]-prazosin as a specific radioligand. The brains were homogenized in 20 volumes of an ice-cold 50 mM Tris-HCl buffer (pH 7.6) and were centrifuged (MPW Med. Instruments, Warsaw, Poland) at 20,000× g for 20 min (0–4 °C). The cell pellet was resuspended in the Tris-HCl buffer and centrifuged again. Radioligand-binding assay was performed in plates (MultiScreen/Millipore, Burlington, MA, USA). The final incubation mixture (final volume 300 μL) consisted of 240 μL of the membrane suspension, 30 μL of [3H]-Prazosin (0.2 nM) solution, and 30 μL of the buffer containing seven to eight concentrations (10^−11 to 10^−4 M) of the tested compounds. For measuring the unspecific binding, phentolamine, 10 μM (in the case of [3H]-Prazosin) was applied. The incubation was terminated by rapid filtration over glass fiber filters (Whatman GF/C, Sigma-Aldrich) using a vacuum manifold (Millipore). The filters were then washed twice with the assay buffer and placed in scintillation vials with a liquid-scintillation cocktail. Radioactivity was measured in a WALLAC 1409 DSA liquid-scintillation counter (BioSurplus, San Diego, CA, USA).
as §1

[4] = target: T2, human adrenergic receptor α1B (Homo sapiens, UniProt P35368); assay: Intrinsic activity, aequorin luminescence functional assay at α1B-AR; type: cell-based; conditions: for α1B-AR Profile: agonist/antagonist profile; for IC50: cells expressing aequorin and human α1B, against phenylephrine, means of three independent experiments in duplicates; for Selectivity Ratio α1A/α1B: selectivity for α1B-AR (IC50(α1A-AR)/IC50(α1B-AR))
T2 sequence (P35368 1-520): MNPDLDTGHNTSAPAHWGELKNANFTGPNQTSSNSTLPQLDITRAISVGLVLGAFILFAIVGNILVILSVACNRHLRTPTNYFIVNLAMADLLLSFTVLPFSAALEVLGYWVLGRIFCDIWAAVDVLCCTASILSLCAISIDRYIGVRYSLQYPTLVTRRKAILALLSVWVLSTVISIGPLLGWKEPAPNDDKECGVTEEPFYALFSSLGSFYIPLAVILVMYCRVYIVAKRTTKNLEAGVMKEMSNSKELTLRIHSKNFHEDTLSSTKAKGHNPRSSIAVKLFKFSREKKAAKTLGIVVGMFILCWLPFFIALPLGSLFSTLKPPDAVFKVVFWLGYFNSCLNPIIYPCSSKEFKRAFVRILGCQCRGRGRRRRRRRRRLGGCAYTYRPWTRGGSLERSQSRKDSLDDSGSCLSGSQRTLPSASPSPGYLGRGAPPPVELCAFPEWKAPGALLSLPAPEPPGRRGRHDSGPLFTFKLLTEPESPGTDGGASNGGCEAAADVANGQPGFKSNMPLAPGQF
Protocol: as §2, §3, §1

[5] = 0.0625 mg/kg i.v., 0 min (initial, before administration)
[6] = i.v., normotensive anesthetized rats
[7] = 2.0 mg/kg i.v., 0 min (initial, before administration)

| α1A-AR Profile [2] | IC50 [2] | Selectivity Ratio α1B/α1A [2] | melting point [°C] | Ki [3] [nM] | α1B-AR Profile [4] | IC50 [4] | Selectivity Ratio α1A/α1B [4] | SMILES | effect on systolic and diastolic blood pressure (in words) [1, 6] | Diastolic blood pressure [1, 7] | Systolic blood pressure [1, 7] | Diastolic blood pressure ([1]; 2.0 mg/kg i.v., 5 min) | Systolic blood pressure ([1]; 2.0 mg/kg i.v., 5 min) | Diastolic blood pressure ([1]; 2.0 mg/kg i.v., 10 min) | Systolic blood pressure ([1]; 2.0 mg/kg i.v., 10 min) | Diastolic blood pressure ([1]; 2.0 mg/kg i.v., 20 min) | Systolic blood pressure ([1]; 2.0 mg/kg i.v., 20 min) | Diastolic blood pressure ([1]; 2.0 mg/kg i.v., 30 min) | Systolic blood pressure ([1]; 2.0 mg/kg i.v., 30 min) | Diastolic blood pressure ([1]; 2.0 mg/kg i.v., 40 min) | other results |
| --- | --- | --- | --- | --- | --- | --- | --- | --- | --- | --- | --- | --- | --- | --- | --- | --- | --- | --- | --- | --- | --- |
| Antagonist | < 100 nM and 0.02 nM | 0.10 | 205 to 207 | 12.7 | Antagonist | < 100 nM and < 11 nM and 0.002 nM | 10.00 | COc1ccccc1N1CCN(CCCCCCN2C(=O)N(Cc3ccc(Cl)cc3Cl)C(=O)C2(C)C)CC1.Cl [Compound 5, 3-(2,4-dichlorobenzyl)-1-(6-(4-(2-methoxyphenyl)piperazin-1-yl)hexyl)-5,5-dimethylimidazolidine-2,4-dione hydrochloride] | statistically significant reduction | – | – | – | – | – | – | – | – | – | – | – | Diastolic blood pressure [1, 5]: 92.0; Systolic blood pressure [1, 5]: 128.8; Diastolic blood pressure ([1]; 0.0625 mg/kg i.v., 5 min): 87.7; Systolic blood pressure ([1]; 0.0625 mg/kg i.v., 5 min): 121.0; Diastolic blood pressure ([1]; 0.0625 mg/kg i.v., 10 min): 84.2; Systolic blood pressure ([1]; 0.0625 mg/kg i.v., 10 min): 116.8; Diastolic blood pressure ([1]; 0.0625 mg/kg i.v., 20 min): 81.7; Systolic blood pressure ([1]; 0.0625 mg/kg i.v., 20 min): 114.2; Diastolic blood pressure ([1]; 0.0625 mg/kg i.v., 30 min): 82.7; Systolic blood pressure ([1]; 0.0625 mg/kg i.v., 30 min): 113.3; Diastolic blood pressure ([1]; 0.0625 mg/kg i.v., 40 min): 81.7; Systolic blood pressure ([1]; 0.0625 mg/kg i.v., 40 min): 114.7; Diastolic blood pressure ([1]; 0.0625 mg/kg i.v., 50 min): 81.8; Systolic blood pressure ([1]; 0.0625 mg/kg i.v., 50 min): 116.8; Diastolic blood pressure ([1]; 0.0625 mg/kg i.v., 60 min): 83.3; Systolic blood pressure ([1]; 0.0625 mg/kg i.v., 60 min): 116.3; hypotensive dose lower than that of urapidil ([1]; 0.0625 vs. 1.0 mg/kg): 16 fold; lowest hypotensive (effective) dose [1, 6]: 0.0625 mg/kg |
| Antagonist | 5910 nM | 0.15 | 196 to 198 | 53 | Antagonist | 905 nM | 6.53 | CC1(C)C(=O)N(Cc2ccc(Cl)cc2Cl)C(=O)N1CC(O)CN1CCN(c2ccccc2)CC1.Cl (centres unmarked) [Compound 6, 3-(2,4-dichlorobenzyl)-1-(2-hydroxy-3-(4-phenylpiperazin-1-yl)propyl)-5,5-dimethylimidazolidine-2,4-dione hydrochloride] | – | 98.2 | 134.2 | 87.2 | 124.2 | 90.3 | 125.2 | 89.7 | 126.3 | 89.0 | 125.0 | 89.0 | Systolic blood pressure ([1]; 2.0 mg/kg i.v., 40 min): 126.7; Diastolic blood pressure ([1]; 2.0 mg/kg i.v., 50 min): 89.2; Systolic blood pressure ([1]; 2.0 mg/kg i.v., 50 min): 125.5; Diastolic blood pressure ([1]; 2.0 mg/kg i.v., 60 min): 88.7; Systolic blood pressure ([1]; 2.0 mg/kg i.v., 60 min): 125.8 |
| Antagonist | 162 nM | 2.21 | 147 to 149 | 26 | Antagonist | 359 nM | 0.45 | CC1(C)C(=O)N(Cc2ccc(Cl)cc2Cl)C(=O)N1CC(O)CN1CCN(c2ccccc2C#N)CC1.Cl (centres unmarked) [Compound 11, 3-(2,4-dichlorobenzyl)-1-(3-(4-(2-cyanophenyl)piperazin-1-yl)-2-hydroxypropyl)-5,5-dimethylimidazolidine-2,4-dione hydrochloride] | no significant changes | 91.7 | 128.5 | 84.0 | 117.0 | 80.7 | 112.8 | 79.7 | 113.0 | 79.8 | 112.5 | 82.0 | Systolic blood pressure ([1]; 2.0 mg/kg i.v., 40 min): 113.8; Diastolic blood pressure ([1]; 2.0 mg/kg i.v., 50 min): 82.3; Systolic blood pressure ([1]; 2.0 mg/kg i.v., 50 min): 116.3; Diastolic blood pressure ([1]; 2.0 mg/kg i.v., 60 min): 81.7; Systolic blood pressure ([1]; 2.0 mg/kg i.v., 60 min): 118.2; selectivity for α1A-AR over α1B-AR ([2]; from IC50 ratio): ~ 2 fold |
